These results are taken from ChEMBL document CHEMBL6092140, “Structure-activity relationship study of small-molecule inhibitor of Atg12-Atg3 protein-protein interaction” (Bioorg Med Chem Lett, 2024).

A word on the IC50: it is the midpoint of a concentration-inhibition curve.

The target of test [1] is Casein kinase II subunit alpha' (Homo sapiens) (UniProt P19784). Briefly: Inhibition of […] (unknown origin) assessed as residual activity relative to control. Also on record: concentration or dose not given beside the values.
Sequence of Casein kinase II subunit alpha' (Homo sapiens) (P19784 whole entry, looked up): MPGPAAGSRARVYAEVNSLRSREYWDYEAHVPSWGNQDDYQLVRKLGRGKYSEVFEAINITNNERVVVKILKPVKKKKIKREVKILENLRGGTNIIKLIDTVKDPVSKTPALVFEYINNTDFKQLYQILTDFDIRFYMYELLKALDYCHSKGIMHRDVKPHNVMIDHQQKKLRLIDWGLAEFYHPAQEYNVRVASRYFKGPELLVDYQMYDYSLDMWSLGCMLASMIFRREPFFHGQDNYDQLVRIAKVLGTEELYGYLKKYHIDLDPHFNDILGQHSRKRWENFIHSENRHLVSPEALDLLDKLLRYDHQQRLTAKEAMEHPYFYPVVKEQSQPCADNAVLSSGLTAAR
Test [2] in a line: Inhibition of wild type ATG12-ATG3 protein protein interaction (unknown origin) expressed in HEK293T cells preincubated for ATG12 for 1 hr followed by ATG3 addition by luminescence based microplate analysis. The test is classed as cell-based, Homo sapiens.

Active and inactive are the calls of the source. The calls are words filed in the database; no cut-off is given here.

`CC1=CN2C(Nc3cccc(Cl)c3)=Nc3cc(-c4noc(=O)[nH]4)ccc3C2N1` (centres undefined): in test [1], the Activity worked out at 105%. In test [2], this compound yielded an IC50 of 92 µM.

`O=C(O)c1ccc2c(c1)nc(Nc1cccc(Cl)c1)c1cccnc12`: the Activity in test [1] was determined as 13%. This compound registered an IC50 in test [2] of 6 µM.

On to `Cc1cnc2c3ccc(C(=O)O)cc3nc(Nc3cccc(Cl)c3)n12`, for which the Activity in test [1] is 29%. The same compound gave a concentration for half-maximal inhibition (IC50) in test [2] of 24 µM.

As for `O=C(O)c1ccc2c(c1)nc(Nc1cccc(Cl)c1)c1cnccc12`, the Activity in test [1] is 28%. In test [2], this compound registered an IC50 of 10 µM.

`O=C(O)c1ccc2ccc(Nc3cccc(Cl)c3)nc2c1`: the Activity in test [1] is 20%. In test [2], half-maximal inhibition (IC50) was put at 50 µM.

Turning to `CC(=O)Oc1ccc(COC(=O)c2ccc3c(c2)nc(Nc2cccc(Cl)c2)c2cccnc23)cc1`, in test [1], the outcome was inactive. In test [2], this compound displayed a 50% inhibitory concentration (IC50) of 53 µM.

In the case of `Cc1cn2c(Nc3cccc(C(C)C)c3)nc3cc(C(=O)O)ccc3c2n1`, the Activity in test [1] amounted to 31%. This compound showed an IC50 in test [2] of 41 µM.

Take `O=C(O)c1ccc2c(c1)nc(Oc1cccc(Cl)c1)c1ccncc12`: in test [1], the Activity came to 4%. In addition, in test [2], the IC50 was 51 µM.

Take `O=C(O)c1ccc2cnc(Nc3cccc(Cl)c3)nc2c1`: the Activity in test [1] was -4%. The same compound had a 50% inhibitory concentration (IC50) in test [2] of 62 µM.

As to `Cn1ncc2c3ccc(C(=O)O)cc3nc(Nc3cccc(Cl)c3)c21`, the Activity in test [1] amounted to 1%. The IC50 in test [2] was determined as 19 µM.

Consider `CC1=CN2C(Nc3cccc(Cl)c3)=Nc3cc(C(N)=O)ccc3C2N1` (centres undefined), for which, in test [1], the Activity amounted to 109%. The same compound showed an IC50 in test [2] of more than 99 µM.

`Cc1cn2c(N(C)c3cccc(Cl)c3)nc3cc(C(=O)O)ccc3c2n1`: the Activity in test [1] was found to be 75%. In addition, in test [2], the IC50 was more than 99 µM.

Consider `CCc1cn2c(Nc3cccc(Cl)c3)nc3cc(C(=O)O)ccc3c2n1`, for which the Activity in test [1] was 20%. Besides, in test [2], the midpoint of inhibition, the IC50, lay at 24 µM.

`O=C(O)c1ccc2c(c1)nc(Nc1cccc(Cl)c1)c1ccsc12`: in test [1], the Activity is -1%. The 50% inhibitory concentration (IC50) in test [2] is 14 µM.

With `O=C(O)c1ccc2c(Cc3ccccc3)nc(Nc3cccc(Cl)c3)nc2c1`, in test [1], the Activity stood at 96%. The IC50 in test [2] is more than 99 µM.

`Cc1cn2c(Nc3cccc(C#N)c3)nc3cc(C(=O)O)ccc3c2n1`: the Activity in test [1] was 38%. In addition, half-maximal inhibition in test [2] (IC50) required 8 µM.

For `Cc1cn2c(Nc3cccc(I)c3)nc3cc(C(=O)O)ccc3c2n1`, the Activity in test [1] amounted to 11%. This compound came in with an IC50 in test [2] of 10 µM.

For the compound `Cn1ncc2c(Nc3cccc(Cl)c3)nc3cc(C(=O)O)ccc3c21`, the Activity in test [1] was found to be 35%. The compound further yielded an IC50 in test [2] of 42 µM.

Turning to `CC1=CN2C(Nc3cccc(Cl)c3)=Nc3cc(-c4nnn[nH]4)ccc3C2N1` (centres undefined), the Activity in test [1] came to 80%. The compound also came in with a half-maximal inhibitory concentration (IC50) in test [2] of 73 µM.

Take `Cc1cn2c(Nc3cccc(Cl)c3)nc3cc(P(=O)(O)O)ccc3c2n1`: the Activity in test [1] was 95%. In test [2], the half-inhibitory concentration (IC50) was more than 99 µM.

With `Clc1cccc(Nc2nc3cc(-c4nnn[nH]4)ccc3c3ncccc23)c1`, the Activity in test [1] was determined as 53%. In test [2], this compound came in with an IC50 of 64 µM.

For the compound `Cc1cn2c(Nc3cccc(OC(F)(F)F)c3)nc3cc(C(=O)O)ccc3c2n1`, the Activity in test [1] came out at 42%. The compound also displayed a concentration for half-maximal inhibition (IC50) in test [2] of 37 µM.

As to `Cc1cn2c(NC3CCCCC3)nc3cc(C(=O)O)ccc3c2n1`, the Activity in test [1] stood at 72%. In test [2], this compound came in with an IC50 of more than 99 µM.

In the case of `Cc1nsc2c1c(Nc1cccc(Cl)c1)nc1cc(C(=O)O)ccc12`, the Activity in test [1] is -1%. The IC50 in test [2] came to 11 µM.

`O=C(O)c1ccc2c(c1)nc(Nc1cccc(Cl)c1)c1ncsc12`: in test [1], the Activity was found to be 1%. The IC50 in test [2] is 16 µM.

For the compound `O=C(O)c1ccc2c(c1)N=C(Nc1cccc(Cl)c1)N1CCN=C21`, in test [1], the Activity came out at 128%. The compound further registered a 50% inhibitory concentration (IC50) in test [2] of 60 µM.

For `O=C(O)c1ccc2c(Cc3ccccc3)cc(Nc3cccc(Cl)c3)nc2c1`, in test [1], the Activity amounted to 101%. The compound also gave an IC50 in test [2] of more than 99 µM.

As for `Cc1cn2c(Nc3ccnc(Cl)c3)nc3cc(C(=O)O)ccc3c2n1`, in test [1], the Activity came to 73%. Besides, the midpoint of inhibition in test [2], the IC50, lay at 71 µM.

For the compound `O=C(O)c1ccc2c(c1)nc(Nc1cccc(Cl)c1)c1ccccc12`, the Activity in test [1] stood at 36%. The compound also had an IC50 in test [2] of 45 µM.

Turning to `Cc1cn2c(Nc3cccc(C(F)(F)F)c3)nc3cc(C(=O)O)ccc3c2n1`, the Activity in test [1] came out at 48%. Also, the IC50 in test [2] was found to be 30 µM.

For the compound `O=C(O)c1ccc2c(c1)N=C(Nc1cccc(Cl)c1)N1CCCN=C21`, in test [1], the Activity worked out at 87%. For the same compound, in test [2], the IC50 was more than 99 µM.

Regarding `CC(C)c1cn2c(Nc3cccc(Cl)c3)nc3cc(C(=O)O)ccc3c2n1`, the Activity in test [1] was 105%. Besides, the IC50 in test [2] turned out to be 30 µM.

On to `O=c1[nH]nc(-c2ccc3c(c2)nc(Nc2cccc(Cl)c2)c2cccnc23)o1`, for which, in test [1], the Activity was 52%. For the same compound, inhibition in test [2] was half-maximal at 72 µM (IC50).

Take `Cn1cnc2c3ccc(C(=O)O)cc3nc(Nc3cccc(Cl)c3)c21`: the Activity in test [1] is 55%. This compound also gave an IC50 in test [2] of 62 µM.

As to `COc1nc(Nc2cccc(Cl)c2)nc2cc(C(=O)O)ccc12`, the Activity in test [1] turned out to be 50%. In test [2], this compound registered a 50% inhibitory concentration (IC50) of 91 µM.

Turning to `Cc1cn2c(Nc3ccc(Cl)cc3)nc3cc(C(=O)O)ccc3c2n1`, the Activity in test [1] was found to be 76%. The compound also showed an IC50 in test [2] of more than 99 µM.

For `O=C(O)c1ccc2c(c1)nc(Nc1cccc(Cl)c1)n1cc(Cc3ccccc3)nc21`, the Activity in test [1] is 81%. The compound further displayed an IC50 in test [2] of 14 µM.

Consider `O=C(O)c1ccc2c(c1)nc(Nc1cccc(Cl)c1)n1ccnc21`, for which the Activity in test [1] was determined as 31%. In addition, 14 µM corresponded to half-maximal inhibition in test [2] (IC50).

Regarding `Cc1cn2c(Nc3cccc(F)c3)nc3cc(C(=O)O)ccc3c2n1`, in test [1], the Activity came out at 35%. This compound had an IC50 in test [2] of 90 µM.

As for `N/C(=N\O)c1ccc2c(c1)nc(Nc1cccc(Cl)c1)c1cccnc12`, the result in test [1] was inactive. Besides, in test [2], the IC50 is more than 99 µM.

As for `Cc1cn2c(NC34CC5CC(CC(C5)C3)C4)nc3cc(C(=O)O)ccc3c2n1`, in test [1], the Activity was determined as 83%. Besides, in test [2], the IC50 turned out to be 25 µM.

Take `Cc1cn2c(NC(C)(C)C)nc3cc(C(=O)O)ccc3c2n1`: in test [1], the Activity is 104%. The same compound had a half-inhibitory concentration (IC50) in test [2] of more than 99 µM.

As for `Cc1scc2c1c(Nc1cccc(Cl)c1)nc1cc(C(=O)O)ccc12`, the Activity in test [1] amounted to 33%. Moreover, half-maximal inhibition in test [2] (IC50) required 14 µM.

Take `Cc1cn2c(Nc3cccc(C(C)(C)C)c3)nc3cc(C(=O)O)ccc3c2n1`: the Activity in test [1] was 102%. The IC50 in test [2] was found to be 24 µM.

Regarding `Cc1cn2c(Nc3cccc(Cl)c3)nc3cc(C(=O)O)ccc3c2n1`, in test [1], the Activity came to 26%. This compound also returned an IC50 in test [2] of 8 µM.

In the case of `O=C(O)c1ccc2c(c1)nc(Nc1cccc(Cl)c1)n1cc(-c3ccccc3)nc21`, the Activity in test [1] was 114%. Besides, the IC50 in test [2] stood at 9 µM.

For the compound `O=C(O)c1ccc2c(c1)nc(Nc1cccc(Cl)c1)c1ccncc12` [SILMITASERTIB], in test [1], the Activity came to 2%. In test [2], the IC50 is 27 µM.
